# From doi:10.1101/2025.02.26.640266v1, “Predicting PROTAC-targeted Degradation and Designing Androgen Receptor Degraders with AiPROTAC” (biorxiv, 2025)
# Target: CRBN (human cereblon) (Homo sapiens, UniProt Q96SW2)
# Assay: HTRF human cereblon binding kit (competition)
structure (smiles),measurement,value
"CC1(C)[C@H](NC(=O)c2ccc(N3CCN(CCCSc4ccc5c(c4)CN(C4CCC(=O)NC4=O)C5=O)CC3)nc2)C(C)(C)[C@H]1Oc1ccc(C#N)c(Cl)c1 (stereo partly shown) [GT19, PROTAC GT19]",IC50,150 nM
